Assays:
LDLR gene expression [1] = assay: Northern hybridization of RNA from the LDLR-luciferase knock-in HepG2 cell line; type: cell-based, human; conditions: LDLR luciferase knock-in HepG2 cells
Procedure: The LDLR targeting construct was introduced into HepG2 cells by electroporation. Following recovery, the cells were maintained in media supplemented 1 mg/ml G418 and 2 uM gancyclovir for 3-4 weeks until individual colonies were observed. These […] isolated and propagated as individual cultures for further characterization. Individual clones were expanded into 24 well tissue culture plates, and genomic DNA was prepared and analyzed by restriction digestion and Southern hybridization. […] This clone was expanded for further characterization and use as a reporter cell line for LDLR gene expression. To determine whether the expression of luciferase gene is regulated as the same way as the endogenous LDLR gene, RNA was prepared and analyzed by Northern hybridization. […] The cholesterol-dependent regulation is the hallmark of LDLR gene expression. As indicated, the LDLR mRNA was regulated by in the presence or absence of cholesterol, albeit in this case the LDLR mRNA level was reduced to half due to the loss of one allele, which was replaced by the luciferase gene. The use of the luciferase knock-in cell line for LDLR gene expression was further validated by the luciferase activity, which was also regulated by cholesterol as predicted.

LDLR gene expression [2] = assay: Luciferase activity of the LDLR-luciferase knock-in HepG2 cell line; type: cell-based, human; conditions: LDLR luciferase knock-in HepG2 cells
Procedure: To determine whether the expression of luciferase gene is regulated as the same way as the endogenous LDLR gene, RNA was prepared and analyzed by Northern hybridization. […] The cholesterol-dependent regulation is the hallmark of LDLR gene expression. As indicated, the LDLR mRNA was regulated by in the presence or absence of cholesterol, albeit in this case the LDLR mRNA level was reduced to half due to the loss of one allele, which was replaced by the luciferase gene. The use of the luciferase knock-in cell line for LDLR gene expression was further validated by the luciferase activity, which was also regulated by cholesterol as predicted. • Aliquot 100 ul cell suspension (10^4–10^5 primary or cultured, differentiated cells) into each well of 96-well plate under sterile conditions • Add compound or extract to 10 uM final concentration • Incubate 6–18 hrs at 37° C. • Remove incubation media • Add 100 ul lysis/luciferin buffer containing 1.0% non-ionic detergent (Triton x-100), 530 uM ATP, 270 uM coA and 470 uM luciferin (Promega). • Measure luciferase-derived luminescence on automated Torcon AML-34 and 7710 Microplate Luminometer (Cambridge Technologies, Inc.) luminometers.

Compound	luciferase mRNA (LDLR gene expression [1]; compared with lipid-depleted media, where mRNA was elevated)	luciferase activity (LDLR gene expression [2])	LDLR mRNA (LDLR gene expression [1]; presence or absence of cholesterol)
C[C@H](CCCC(C)(C)O)[C@H]1CC[C@H]2[C@@H]3CC=C4C[C@@H](O)CC[C@]4(C)[C@H]3CC[C@]12C [25-hydroxycholesterol]	suppressed	–	–
CC(C)CCC[C@@H](C)[C@H]1CC[C@H]2[C@@H]3CC=C4C[C@@H](O)CC[C@]4(C)[C@H]3CC[C@]12C [cholesterol]	–	regulated	regulated
